From EP1097196B2, “GL[…]” (priority 1998, dated 2000)

Assays:
Experiment in all cases: Specific activity as kcat on purified enzyme
Assay type in all cases: biochemical
Settings in all cases: pH 4.3, 37°C, purified sample
[1] = system: Aspergillus niger glucoamylase AMG G2 (SEQ ID NO: 2) variant N110T
Description: (§1) Maltose: 29mM (1g maltose in 100ml 50mM sodium acetate, pH 4.5) (Sigma) Maltoheptaose: 10 mM, 115 mg/10 ml (Sigma)
(§2) Determining Specific Activity As kcat (sec.^-1).
(§3) 750 microL substrate (1% maltose, 50 mM Sodium acetat, pH 4.3) is incubated 5 minutes at selected temperature, such as 37°C or 60°C.
(§4) 50 microL enzyme diluted in sodium acetate is added. Aliquots of 100 microL are removed after 0, 3, 6, 9 and 12 minutes and transferred to 100 microL 0.4 M Sodium hydroxide to stop the reaction. A blank is included. 20 microL is transferred to a Micro titre plates and 200 microL GOD-Perid solution is added. Absorbance is measured at 650 nm after 30 minutes incubation at room temperature. Glucose is used as standard and the specific activity is calculated as kcat (sec.^-1).
(§5) AMG G2 variants were constructed as described above in Example 1. The specific activity as kcat were measured on purified samples at pH 4.3, 37°C, using maltose and maltohepatose as substrate as described in the "Materials & Methods" section above. The specific activity as AGU/mg were also measured at pH 4.3, 37°C, using maltose as substrate as described in the "Materials & Methods" section above.

[2] = system: Aspergillus niger glucoamylase AMG G2 (SEQ ID NO: 2) variant V111P
Description: as §1, §2, §3, §4, §5

[3] = system: Aspergillus niger glucoamylase AMG G2 (wt), SEQ ID NO: 2
Description: as §1, §2, §3, §4, §5

[4] = system: Aspergillus niger glucoamylase AMG G2 (SEQ ID NO: 2) variant S119P
Description: as §1, §2, §3, §4, §5

[5] = system: Aspergillus niger glucoamylase AMG G2 (SEQ ID NO: 2) variant G207N
Description: as §1, §2, §3, §4, §5

[6] = system: Aspergillus niger glucoamylase AMG G2 (SEQ ID NO: 2) variant G127A
Description: as §1, §2, §3, §4, §5

## OC[C@H]1O[C@H](O[C@H]2[C@H](O)[C@@H](O)C(O)O[C@@H]2CO)[C@H](O)[C@@H](O)[C@@H]1O (mixture of isomers) [Maltose]
[1]; substrate maltose
  Kcat (Maltose): 9.7 sec.-1
[2]; substrate maltose
  Kcat (Maltose): 12.0 sec.-1
[3]; substrate maltose
  Kcat (Maltose): 6.0 sec.-1
[4]; substrate maltose
  Kcat (Maltose): 6.2 sec.-1
[5]; substrate maltose
  Kcat (Maltose): 30.5 sec.-1
[6]; substrate maltose
  Kcat (Maltose): 21.0 sec.-1

## OC[C@H]1O[C@H](O[C@H]2[C@H](O)[C@@H](O)[C@@H](O[C@H]3[C@H](O)[C@@H](O)[C@@H](O[C@H]4[C@H](O)[C@@H](O)[C@@H](O[C@H]5[C@H](O)[C@@H](O)[C@@H](O[C@H]6[C@H](O)[C@@H](O)[C@@H](O[C@H]7[C@H](O)[C@@H](O)C(O)O[C@@H]7CO)O[C@@H]6CO)O[C@@H]5CO)O[C@@H]4CO)O[C@@H]3CO)O[C@@H]2CO)[C@H](O)[C@@H](O)[C@@H]1O (stereo partly drawn) [Maltoheptaose]
[1]; substrate maltoheptaose
  Kcat (Maltoheptaose): 27.8 sec.-1
[2]; substrate maltoheptaose
  Kcat (Maltoheptaose): 43.2 sec.-1
[3]; substrate maltoheptaose
  Kcat (Maltoheptaose): 38 sec.-1
[4]; substrate maltoheptaose
  Kcat (Maltoheptaose): 44.0 sec.-1
[5]; substrate maltoheptaose
  Kcat (Maltoheptaose): 36.3 sec.-1
[6]; substrate maltoheptaose
  Kcat (Maltoheptaose): 40.0 sec.-1
